# Experimental data from paper PMC8765437, “GSK3640254 Is a Novel HIV-1 Maturation Inhibitor with an Optimized Virology Profile” (Antimicrobial Agents and Chemotherapy, 2022).
# Like-named read-outs stand apart in the source and are kept apart here.
# Assays:
# [1] = tested on: HIV-1 M tropic strains; assay: M-tropic laboratory strains, extracellular p24 antigen in PM1 cells; format: cell-based
# Experimental: Virus yields were measured in dose-response experiments by either luciferase activity in human T-cells (CEM-NKR-CCR5-Luc), extracellular reverse transcriptase activity in MT-2 cells (T-tropic viruses), or extracellular p24 antigen in PM1 cells (M-tropic viruses).
# Multiple-cycle assays using recombinant viruses or clinical isolates were used to assess MI antiviral activity as described previously ([10]). pNLRepRlucP373S (the P373S change is in the Gag gene and converts an outlier polymorphism in the NL4-3 gene to the prevalent amino acid in the population) plasmids containing SDMs in Gag or gag/pr regions from clinical isolates were transfected into HEK 293T cells, and the supernatant containing recombinant virus was harvested after 4 to 5 days. Virus was used to infect MT-2 cells in the presence of a 3-fold serially diluted compound at a final dimethyl sulfoxide (DMSO) concentration of 1%. The inocula of the reporter viruses were determined based on the luciferase activity detected on day 4 postinfection. The MOI (ratio of infectious virions to target cells) of reporter-free laboratory strains and clinical isolates was 0.005, as derived from a tissue culture infectious dose study. Clinical isolates or reporter-free viruses were examined in the reporter CEM-NKR-CCR5-Luc cells or PBMCs at MOIs ranging from 0.005 to 0.01. Each infection started with a drug-free preincubation of the cell-virus mixtures, performed at 37°C and 5% CO2 for either 1 h at 2 times the final cell density (reporter viruses) or 1 h (reporter-free laboratory strains) or 3 h (clinical isolates) using cell pellets in 0.5 mL of medium. […] Virus growth was determined on days 4 to 5 postinfection for reporter variants or days 5 to 11 for the other viruses. The reporter viruses were detected by a luciferase assay according to manufacturer protocols (Brite-Glo luciferase kit [Promega] for CEM-NKR-CCR5-Luc cells and Dual-Luciferase Reporter 1000 assay system [Promega] for the other cells), and luminescence was detected on a Wallac Trilux. The growth of clinical isolates in PBMCs was quantitated by reverse transcriptase activity in a 96-well scintillation proximity assay (SPA). […] Luminescence was detected on a Wallac Trilux programmed for tritium counting with SPA beads in opaque plates. The growth of the reporter-free laboratory M-tropic strains and clinical isolates was monitored by a p24 enzyme-linked immunosorbent assay (ELISA; PerkinElmer Life Sciences, Waltham, MA) performed on culture supernatants.
# Maximal percent inhibition values were calculated as MPI = 100 – (mean signals at the 2 highest concentrations of compound/mean signal of 2 no-drug control wells) × 100.
# [2] = tested on: HIV-1 clinical isolates; assay: Inhibition of clinical isolates in PBMCs; format: cell-based; conditions: Human immunodeficiency virus 1, PBMC
# Experimental: Human peripheral blood mononuclear cells (PBMCs) were infected with isolates, and virus yields were measured by determining extracellular p24 protein levels (Table 4). […] These isolates were also examined in the NLRepRlucP373S virus by replacement of the gag/pr genes with those from these clinical isolates.
# Peripheral blood mononuclear cells (BioReclamation, Westbury, NY) were cultured at 37°C and 5% CO2 in RPMI 1640 medium with 20% fetal bovine serum (Gibco Laboratories), 100 units/mL of penicillin G, 100 units/mL of streptomycin (Gibco Laboratories), and 1 ng/mL of recombinant human interleukin-2 (Invitrogen, Carlsbad, CA). Peripheral blood mononuclear cells were stimulated with 2 μg/mL of phytohemagglutinin (Sigma-Aldrich, St. Louis, MO) for 2 days before infection with HIV-1 clinical isolates.
# Multiple-cycle assays using recombinant viruses or clinical isolates were used to assess MI antiviral activity as described previously ([10]). pNLRepRlucP373S (the P373S change is in the Gag gene and converts an outlier polymorphism in the NL4-3 gene to the prevalent amino acid in the population) plasmids containing SDMs in Gag or gag/pr regions from clinical isolates were transfected into HEK 293T cells, and the supernatant containing recombinant virus was harvested after 4 to 5 days. Virus was used to infect MT-2 cells in the presence of a 3-fold serially diluted compound at a final dimethyl sulfoxide (DMSO) concentration of 1%. The inocula of the reporter viruses were determined based on the luciferase activity detected on day 4 postinfection. The MOI (ratio of infectious virions to target cells) of reporter-free laboratory strains and clinical isolates was 0.005, as derived from a tissue culture infectious dose study. Clinical isolates or reporter-free viruses were examined in the reporter CEM-NKR-CCR5-Luc cells or PBMCs at MOIs ranging from 0.005 to 0.01. Each infection started with a drug-free preincubation of the cell-virus mixtures, performed at 37°C and 5% CO2 for either 1 h at 2 times the final cell density (reporter viruses) or 1 h (reporter-free laboratory strains) or 3 h (clinical isolates) using cell pellets in 0.5 mL of medium. After preincubation, cell-virus mixtures were added to compound-containing 96-well plates for a final cell density of either 10,000 (MT-2 cells for reporter viruses), 20,000 (MT-2 and PM1 cells for reporter-free laboratory strains), 200,000 (PBMCs for clinical isolates), or 500,000 (CEM-NKR-CCR5-Luc for reporter-free laboratory strains) cells per well. The CEM-NKR-CCR5-Luc cell assay was performed in the presence of Polybrene (10 μg/mL). Virus growth was determined on days 4 to 5 postinfection for reporter variants or days 5 to 11 for the other viruses. The reporter viruses were detected by a luciferase assay according to manufacturer protocols (Brite-Glo luciferase kit [Promega] for CEM-NKR-CCR5-Luc cells and Dual-Luciferase Reporter 1000 assay system [Promega] for the other cells), and luminescence was detected on a Wallac Trilux. The growth of clinical isolates in PBMCs was quantitated by reverse transcriptase activity in a 96-well scintillation proximity assay (SPA). Twenty microliters of culture supernatants was mixed with 40 μL of reaction cocktail (62.5 mM Tris-HCl [pH 7.8], 100 mM KCl, 0.0625% NP-40, 2.5 mM dithiothreitol [DTT], 6.25 mM MgCl2, 1 mM EGTA, 6.25 μg/mL of poly rA, 2.5 μg/mL of streptavidin SPA beads prebound with biotinylated-dT12-18, and 1 μCi of [^3H]TTP). Mixtures were incubated at 37°C for ∼3 h and quenched with 100 μl of 0.25 M EDTA per well. Luminescence was detected on a Wallac Trilux programmed for tritium counting with SPA beads in opaque plates. The growth of the reporter-free laboratory M-tropic strains and clinical isolates was monitored by a p24 enzyme-linked immunosorbent assay (ELISA; PerkinElmer Life Sciences, Waltham, MA) performed on culture supernatants.
# [3] = tested on: RepRlucNL4-3GagP373S variants; assay: Virus breakthrough in MT-2 cell culture in the presence of compound; format: cell-based, HIV-1; conditions: for Days to virus breakthrough, Expt 1 / Days to virus breakthrough, Expt 2: drug 80 nM; for samples exhibiting breakthrough: low and high MOIs, 80 nM, over the 46-day experiment
# Experimental: The ability of virus to break through and grow in the presence of an inhibitory concentration of a compound in cell culture provides an indication of its resistance barrier. […] Experiments were performed in duplicate at a low or high MOI (0.005 and 0.05) and at a drug concentration of 80 nM with RepRlucP373S WT virus or SDM-containing virus with known Gag polymorphisms (Table 6).
# Cultures were incubated at 37°C and 5% CO2 until ∼100% cytopathic effect (CPE) was observed. […] At each passage, 100 μL of culture supernatant was collected and stored at −20°C. When a culture reached 100% CPE, it was terminated, and supernatants were harvested for subsequent virus population sequencing.
# [4] = Human immunodeficiency virus 1, PM1, Bal
# [5] = Human immunodeficiency virus 1, PM1, JRFL
# [6] = read-out: Mean EC50, subtype A 92UG037
# [7] = read-out: Mean EC50, subtype A 93RW029
# [8] = read-out: Mean EC50, subtype A 93RW034
# [9] = read-out: Mean EC50, subtype AE 93TH023
# [10] = read-out: Mean EC50, subtype AE 93TH053
# [11] = read-out: Mean EC50, subtype AE CMU010
# [12] = read-out: Mean EC50, subtype B 92BR003
# [13] = read-out: Mean EC50, subtype B 92BR018
# [14] = read-out: Mean EC50, subtype B 93BR009
# [15] = read-out: Mean EC50, subtype B 93BR013
# [16] = read-out: Mean EC50, subtype B 93BR017
# [17] = read-out: Mean EC50, subtype C 93MW960
# [18] = read-out: Mean EC50, subtype C 97ZA012
# [19] = read-out: Mean EC50, subtype C 98BR004
# [20] = read-out: Mean EC50, subtype C 10215-6
# [21] = read-out: Mean EC50, subtype C 20706-3
# [22] = read-out: Mean EC50, subtype C MJ4
structure (smiles),measurement,setting,value
C=C(C)[C@@H]1CC[C@]2(NCCN3CCS(=O)(=O)CC3)CC[C@]3(C)[C@H](CC[C@@H]4[C@@]5(C)CC=C(C6=CC[C@@](CF)(C(=O)O)CC6)C(C)(C)[C@@H]5CC[C@]43C)[C@@H]12 [GSK’254],EC50,[1]; [4],1.1 nM
same,EC50,[1]; [5],1.2 nM
same,EC50,[2]; [6],5 nM
same,EC50,[2]; [7],3 nM
same,EC50,[2]; [8],1 nM
same,EC50,[2]; [9],1 nM
same,EC50,[2]; [10],5 nM
same,EC50,[2]; [11],3 nM
same,EC50,[2]; [12],2 nM
same,EC50,[2]; [13],77 nM
same,EC50,"[2]; read-out: Mean EC50, subtype B 93BR008",50 nM
same,EC50,[2]; [14],1 nM
same,EC50,[2]; [15],3 nM
same,EC50,[2]; [16],1 nM
same,EC50,"[2]; read-out: Mean EC50, subtype B 93US143",2 nM
same,EC50,[2]; [17],9 nM
same,EC50,[2]; [18],3 nM
same,EC50,[2]; [19],1 nM
same,EC50,[2]; [20],1 nM
same,EC50,[2]; [21],4 nM
same,EC50,[2]; [22],3 nM
same,EC50,"[2]; read-out: mean EC50, subtype A/AE isolates",3 nM
same,EC50,"[2]; read-out: mean EC50, subtype B isolates",19 nM
same,EC50,"[2]; read-out: mean EC50, subtype C isolates",3.5 nM
same,"Days to virus breakthrough, Expt 1","[3]; High MOI (0.05), V362I",11 days
same,"Days to virus breakthrough, Expt 2","[3]; High MOI (0.05), V362I",11 days
same,"Days to virus breakthrough, Expt 1","[3]; High MOI (0.05), V370A",>46 days
same,"Days to virus breakthrough, Expt 2","[3]; High MOI (0.05), V370A",>46 days
same,"Days to virus breakthrough, Expt 1","[3]; High MOI (0.05), V370M",21 days
same,"Days to virus breakthrough, Expt 2","[3]; High MOI (0.05), V370M",11 days
same,"Days to virus breakthrough, Expt 1","[3]; High MOI (0.05), Wild type",>46 days
same,"Days to virus breakthrough, Expt 2","[3]; High MOI (0.05), Wild type",18 days
same,"Days to virus breakthrough, Expt 1","[3]; Low MOI (0.005), V362I",46 days
same,"Days to virus breakthrough, Expt 2","[3]; Low MOI (0.005), V362I",>46 days
same,"Days to virus breakthrough, Expt 1","[3]; Low MOI (0.005), V370A",>46 days
same,"Days to virus breakthrough, Expt 2","[3]; Low MOI (0.005), V370A",11 days
same,"Days to virus breakthrough, Expt 1","[3]; Low MOI (0.005), V370M",>46 days
same,"Days to virus breakthrough, Expt 2","[3]; Low MOI (0.005), V370M",18 days
same,"Days to virus breakthrough, Expt 1","[3]; Low MOI (0.005), Wild type",14 days
same,"Days to virus breakthrough, Expt 2","[3]; Low MOI (0.005), Wild type",>46 days
same,samples exhibiting breakthrough,[3],9 of 16
"C=C(C)[C@@H]1CC[C@]2(NCCN3CCS(=O)(=O)CC3)CC[C@]3(C)[C@H](CC[C@@H]4[C@@]5(C)CC=C(c6ccc(C(=O)O)cc6)C(C)(C)[C@@H]5CC[C@]43C)[C@@H]12 [GSK’795, reference compound]",EC50,[1]; [4],3.7 nM
same,EC50,[1]; [5],13 nM
same,EC50,[2]; [6],2 nM
same,EC50,[2]; [7],6 nM
same,EC50,[2]; [8],2 nM
same,EC50,[2]; [9],533 nM
same,EC50,[2]; [10],18 nM
same,EC50,[2]; [11],35 nM
same,EC50,[2]; [12],4 nM
same,EC50,[2]; [13],145 nM
same,EC50,[2]; [14],2 nM
same,EC50,[2]; [15],9 nM
same,EC50,[2]; [16],10 nM
same,EC50,[2]; [17],1580 nM
same,EC50,[2]; [18],4 nM
same,EC50,[2]; [19],1 nM
same,EC50,[2]; [20],13 nM
same,EC50,[2]; [21],4 nM
same,EC50,[2]; [22],7 nM
same,EC50,"[2]; read-out: mean EC50 toward clinical isolates, panel of HIV-1 clinical isolates, subtypes A, B, C, CRF01_AE",138 nM
same,"Days to virus breakthrough, Expt 1","[3]; High MOI (0.05), V362I",7 days
same,"Days to virus breakthrough, Expt 2","[3]; High MOI (0.05), V362I",7 days
same,"Days to virus breakthrough, Expt 1","[3]; High MOI (0.05), V370A",11 days
same,"Days to virus breakthrough, Expt 2","[3]; High MOI (0.05), V370A",11 days
same,"Days to virus breakthrough, Expt 1","[3]; High MOI (0.05), V370M",7 days
same,"Days to virus breakthrough, Expt 2","[3]; High MOI (0.05), V370M",7 days
same,"Days to virus breakthrough, Expt 1","[3]; High MOI (0.05), Wild type",11 days
same,"Days to virus breakthrough, Expt 2","[3]; High MOI (0.05), Wild type",14 days
same,"Days to virus breakthrough, Expt 1","[3]; Low MOI (0.005), V362I",7 days
same,"Days to virus breakthrough, Expt 2","[3]; Low MOI (0.005), V362I",11 days
same,"Days to virus breakthrough, Expt 1","[3]; Low MOI (0.005), V370A",11 days
same,"Days to virus breakthrough, Expt 2","[3]; Low MOI (0.005), V370A",18 days
same,"Days to virus breakthrough, Expt 1","[3]; Low MOI (0.005), V370M",7 days
same,"Days to virus breakthrough, Expt 2","[3]; Low MOI (0.005), V370M",11 days
same,"Days to virus breakthrough, Expt 1","[3]; Low MOI (0.005), Wild type",>46 days
same,"Days to virus breakthrough, Expt 2","[3]; Low MOI (0.005), Wild type",14 days
same,samples exhibiting breakthrough,[3],15 of 16
